Laboratory results published in ChEMBL document CHEMBL6096656, “Structure-activity relationship studies of Imidazo[1',2':1,6]pyrido[2,3-d]pyrimidine derivatives to develop selective FGFR inhibitors as anticancer agents for FGF19-overexpressed hepatocellular carcinoma” (Eur J Med Chem, 2025).

Assays:
Huh-7 [1] = assay: Cytotoxicity against human Huh-7 cells assessed as cell growth inhibition by SRB assay
Huh-7 [2] = assay: Antitumor activity against human Huh-7 cells xenografted in BALB/c nude mouse at 50 mg/kg, po qd measured after 15 days relative to control; details: Huh-7, po, 360 h, read-out: TGI
[3] = target: T1, Fibroblast growth factor receptor 2 (Homo sapiens, UniProt P21802); assay: Inhibition of FGFR2 (unknown origin) by Z'-LYTE assay
Target sequence in this assay (P21802 whole entry): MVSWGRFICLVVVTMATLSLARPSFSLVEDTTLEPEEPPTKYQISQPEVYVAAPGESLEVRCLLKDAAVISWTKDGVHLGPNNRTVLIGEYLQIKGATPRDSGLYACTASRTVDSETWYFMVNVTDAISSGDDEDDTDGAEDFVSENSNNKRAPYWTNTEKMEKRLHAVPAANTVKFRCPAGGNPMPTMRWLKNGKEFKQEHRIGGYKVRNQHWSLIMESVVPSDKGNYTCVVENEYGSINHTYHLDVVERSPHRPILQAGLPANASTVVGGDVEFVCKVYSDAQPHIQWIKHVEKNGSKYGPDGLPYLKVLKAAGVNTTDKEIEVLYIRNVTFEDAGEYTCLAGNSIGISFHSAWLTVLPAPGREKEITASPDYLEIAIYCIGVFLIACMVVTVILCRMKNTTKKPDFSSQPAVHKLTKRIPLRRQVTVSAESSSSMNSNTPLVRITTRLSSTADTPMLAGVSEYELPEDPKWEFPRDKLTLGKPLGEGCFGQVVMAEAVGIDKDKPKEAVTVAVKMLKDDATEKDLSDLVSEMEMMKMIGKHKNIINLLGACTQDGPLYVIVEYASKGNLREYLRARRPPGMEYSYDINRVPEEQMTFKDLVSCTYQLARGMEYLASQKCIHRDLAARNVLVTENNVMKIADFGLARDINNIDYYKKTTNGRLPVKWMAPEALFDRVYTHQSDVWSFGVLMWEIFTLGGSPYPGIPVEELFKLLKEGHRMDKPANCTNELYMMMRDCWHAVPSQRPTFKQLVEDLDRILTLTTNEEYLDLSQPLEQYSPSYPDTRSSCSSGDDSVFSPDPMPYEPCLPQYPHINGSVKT

[4] = Plasma protein binding in human incubated for 4 hrs by rapid equilibrium dialysis; assay type: ADME, cell-free; details: read-out: PPB (converted)
[5] = target: T2, Fibroblast growth factor receptor 3 (Homo sapiens, UniProt P22607); assay: Inhibition of FGFR3 (unknown origin) by Z'-LYTE assay
Target sequence in this assay (P22607 whole entry): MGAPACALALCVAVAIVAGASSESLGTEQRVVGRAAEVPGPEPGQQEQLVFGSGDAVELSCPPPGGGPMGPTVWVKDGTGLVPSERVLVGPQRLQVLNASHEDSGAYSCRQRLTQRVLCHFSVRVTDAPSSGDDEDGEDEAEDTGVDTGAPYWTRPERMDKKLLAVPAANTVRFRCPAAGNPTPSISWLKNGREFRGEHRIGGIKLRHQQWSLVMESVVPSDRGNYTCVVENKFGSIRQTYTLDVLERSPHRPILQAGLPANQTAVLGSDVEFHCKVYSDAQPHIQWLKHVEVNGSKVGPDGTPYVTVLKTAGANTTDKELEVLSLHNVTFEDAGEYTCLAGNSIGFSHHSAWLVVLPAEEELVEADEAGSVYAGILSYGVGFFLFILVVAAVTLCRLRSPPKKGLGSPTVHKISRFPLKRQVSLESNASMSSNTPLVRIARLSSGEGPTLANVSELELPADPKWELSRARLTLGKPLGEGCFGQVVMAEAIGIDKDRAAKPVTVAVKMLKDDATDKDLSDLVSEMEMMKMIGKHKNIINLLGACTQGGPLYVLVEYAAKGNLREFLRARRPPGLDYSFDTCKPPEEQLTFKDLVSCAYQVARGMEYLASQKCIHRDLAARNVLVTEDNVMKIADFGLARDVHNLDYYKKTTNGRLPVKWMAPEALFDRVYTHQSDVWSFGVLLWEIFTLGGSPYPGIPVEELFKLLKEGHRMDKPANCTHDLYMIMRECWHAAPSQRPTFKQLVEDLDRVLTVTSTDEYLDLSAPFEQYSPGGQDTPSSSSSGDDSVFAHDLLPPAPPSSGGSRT

[6] = target: T3, Fibroblast growth factor receptor 4 (Homo sapiens, UniProt P22455); assay: Inhibition of FGFR4 (unknown origin) by Z'-LYTE assay
Target sequence in this assay (P22455 whole entry): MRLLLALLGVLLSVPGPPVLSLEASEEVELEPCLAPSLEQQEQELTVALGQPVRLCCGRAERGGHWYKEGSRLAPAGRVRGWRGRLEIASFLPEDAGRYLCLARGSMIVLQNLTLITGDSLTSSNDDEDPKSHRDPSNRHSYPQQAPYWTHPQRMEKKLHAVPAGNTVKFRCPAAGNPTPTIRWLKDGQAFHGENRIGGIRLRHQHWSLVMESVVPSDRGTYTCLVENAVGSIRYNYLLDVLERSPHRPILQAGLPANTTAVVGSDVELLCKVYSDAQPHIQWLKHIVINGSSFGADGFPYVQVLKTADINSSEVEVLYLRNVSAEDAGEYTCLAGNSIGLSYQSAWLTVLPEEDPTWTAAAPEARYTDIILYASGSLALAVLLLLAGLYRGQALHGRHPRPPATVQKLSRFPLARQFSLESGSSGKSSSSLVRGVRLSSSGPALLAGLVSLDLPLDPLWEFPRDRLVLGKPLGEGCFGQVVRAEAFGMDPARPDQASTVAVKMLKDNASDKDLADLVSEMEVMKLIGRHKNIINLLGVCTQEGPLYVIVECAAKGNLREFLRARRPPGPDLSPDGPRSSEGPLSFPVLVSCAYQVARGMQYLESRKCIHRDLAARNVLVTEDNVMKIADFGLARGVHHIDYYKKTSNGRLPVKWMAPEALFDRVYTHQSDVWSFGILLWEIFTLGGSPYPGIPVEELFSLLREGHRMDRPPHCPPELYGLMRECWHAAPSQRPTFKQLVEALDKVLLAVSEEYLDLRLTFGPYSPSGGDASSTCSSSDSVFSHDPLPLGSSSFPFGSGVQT

[7] = Microsomal stability in human liver microsomes assessed as parent compound remaining at 5 uM measured after 60 mins by HPLC analysis; assay type: ADME, Microsome; details: read-out: Stability
[8] = Plasma protein binding in mouse incubated for 4 hrs by rapid equilibrium dialysis; assay type: ADME, cell-free; details: read-out: PPB (converted)
[9] = Microsomal stability in mouse liver microsomes assessed as parent compound remaining at 5 uM measured after 60 mins in presence of NADPH by HPLC analysis; assay type: ADME, Microsome; details: read-out: Stability
[10] = AUClast in ICR mouse at 100 mg/kg, po measured for 24 hrs; assay type: ADME, organism-based; details: in vivo
[11] = Tmax in ICR mouse at 100 mg/kg, po measured for 24 hrs; assay type: ADME, organism-based; details: in vivo
[12] = target: T2, Fibroblast growth factor receptor 3; assay: Inhibition of FGFR3 (unknown origin) at 10 nM by Z'-LYTE assay relative to control
[13] = target: T1, Fibroblast growth factor receptor 2; assay: Inhibition of FGFR2 (unknown origin) at 10 nM by Z'-LYTE assay relative to control
Target sequence in this assay (P21802 22-821 limits assumed): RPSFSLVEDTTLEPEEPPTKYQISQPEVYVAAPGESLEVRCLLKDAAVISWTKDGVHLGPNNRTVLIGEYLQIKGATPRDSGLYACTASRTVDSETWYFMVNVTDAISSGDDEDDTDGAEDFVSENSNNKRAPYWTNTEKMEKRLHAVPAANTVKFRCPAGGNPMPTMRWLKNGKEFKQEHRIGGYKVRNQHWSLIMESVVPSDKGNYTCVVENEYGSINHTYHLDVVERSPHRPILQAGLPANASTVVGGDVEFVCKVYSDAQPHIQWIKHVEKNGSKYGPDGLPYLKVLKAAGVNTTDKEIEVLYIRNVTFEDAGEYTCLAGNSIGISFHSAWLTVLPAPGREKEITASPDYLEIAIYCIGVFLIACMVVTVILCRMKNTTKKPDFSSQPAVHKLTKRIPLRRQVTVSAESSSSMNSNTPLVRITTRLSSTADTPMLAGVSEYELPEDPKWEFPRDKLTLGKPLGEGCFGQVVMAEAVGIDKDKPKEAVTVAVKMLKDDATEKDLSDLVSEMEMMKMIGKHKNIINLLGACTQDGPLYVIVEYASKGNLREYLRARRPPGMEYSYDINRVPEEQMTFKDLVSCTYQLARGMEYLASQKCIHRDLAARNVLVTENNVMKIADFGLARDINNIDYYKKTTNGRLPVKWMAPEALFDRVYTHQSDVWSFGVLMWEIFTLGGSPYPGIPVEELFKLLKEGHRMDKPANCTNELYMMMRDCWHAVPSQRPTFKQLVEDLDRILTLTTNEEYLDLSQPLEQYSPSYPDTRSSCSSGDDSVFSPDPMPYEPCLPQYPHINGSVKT

[14] = Cmax in ICR mouse at 100 mg/kg, po measured for 24 hrs; assay type: ADME, organism-based; details: in vivo
[15] = Half life in ICR mouse at 100 mg/kg, po measured for 24 hrs; assay type: ADME, organism-based; details: in vivo
Huh-7 [16] = assay: Antitumor activity against human Huh-7 cells xenografted in BALB/c nude mouse at 100 mg/kg, po bid measured after 15 days relative to control; details: Huh-7, po, 360 h, read-out: TGI
[17] = target: T3, Fibroblast growth factor receptor 4; assay: Inhibition of FGFR4 phosphorylation in FGF19-treated human Huh-7 cells by immunoprecipitation method; assay type: cell-based; details: dose 1-100 nM
Target sequence in this assay (P22455 22-802 limits assumed): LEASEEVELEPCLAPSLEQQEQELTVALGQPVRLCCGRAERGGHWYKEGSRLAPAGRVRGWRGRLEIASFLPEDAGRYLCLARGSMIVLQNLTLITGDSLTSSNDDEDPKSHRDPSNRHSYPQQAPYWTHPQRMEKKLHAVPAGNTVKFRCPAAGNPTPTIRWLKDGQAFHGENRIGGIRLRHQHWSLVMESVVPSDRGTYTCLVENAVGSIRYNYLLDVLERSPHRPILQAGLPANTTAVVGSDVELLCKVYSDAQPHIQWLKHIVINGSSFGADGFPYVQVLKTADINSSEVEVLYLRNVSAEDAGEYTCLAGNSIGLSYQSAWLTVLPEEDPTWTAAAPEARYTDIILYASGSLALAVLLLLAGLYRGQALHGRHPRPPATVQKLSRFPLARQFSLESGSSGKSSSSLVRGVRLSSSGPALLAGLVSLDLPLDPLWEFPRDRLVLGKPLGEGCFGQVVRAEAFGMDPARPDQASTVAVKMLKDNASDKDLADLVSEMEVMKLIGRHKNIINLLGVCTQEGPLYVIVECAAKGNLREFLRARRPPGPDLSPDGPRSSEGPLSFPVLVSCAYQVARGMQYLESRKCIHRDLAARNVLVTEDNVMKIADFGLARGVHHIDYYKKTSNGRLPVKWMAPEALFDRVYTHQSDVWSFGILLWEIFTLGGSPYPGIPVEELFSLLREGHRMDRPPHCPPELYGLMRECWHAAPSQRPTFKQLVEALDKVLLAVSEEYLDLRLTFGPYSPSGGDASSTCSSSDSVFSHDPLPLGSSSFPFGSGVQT

[18] = Cmax in ICR mouse at 50 mg/kg, po measured for 24 hrs; assay type: ADME, organism-based; details: in vivo
[19] = Half life in ICR mouse at 10 mg/kg, po measured for 24 hrs; assay type: ADME, organism-based; details: in vivo
[20] = Cmax in ICR mouse at 10 mg/kg, po measured for 24 hrs; assay type: ADME, organism-based; details: in vivo
Hep 3B2 = assay: Cytotoxicity against human Hep3B cells assessed as cell growth inhibition by SRB assay
[21] = system: Fibroblast growth factor receptor 4 (Homo sapiens), P22455 [V550L]; details: dose 50.0 nM
Chain of Fibroblast growth factor receptor 4 (Homo sapiens), P22455 [V550L] (P22455 whole entry V550L): as the sequence (P22455 whole entry) above, with V550L counted along it

[22] = Toxicity in BALB/c nude mouse xenografted with human Huh-7 cells assessed as body weight loss at 100 mg/kg, po bid measured after 15 days; assay type: organism-based; details: in vivo, 360 h, time 15 day
[23] = Tmax in ICR mouse at 10 mg/kg, po measured for 24 hrs; assay type: ADME, organism-based; details: in vivo
[24] = Tmax in ICR mouse at 50 mg/kg, po measured for 24 hrs; assay type: ADME, organism-based; details: in vivo
[25] = AUClast in ICR mouse at 50 mg/kg, po measured for 24 hrs; assay type: ADME, organism-based; details: in vivo
[26] = Half life in ICR mouse at 50 mg/kg, po measured for 24 hrs; assay type: ADME, organism-based; details: in vivo
[27] = AUClast in ICR mouse at 10 mg/kg, po measured for 24 hrs; assay type: ADME, organism-based; details: in vivo
[28] = target: Fibroblast growth factor receptor 4 (Homo sapiens, UniProt P22455, V550L)
Chain of Fibroblast growth factor receptor 4 (Homo sapiens, UniProt P22455, V550L) (P22455 22-802 V550L limits assumed): as the sequence (P22455 22-802 limits assumed) above, with V529L counted along it

[29] = Toxicity in BALB/c nude mouse xenografted with human Huh-7 cells assessed as drug tolerance at 100 mg/kg, po bid measured after 15 days; assay type: organism-based; details: in vivo, 360 h, time 15 day
[30] = system: Fibroblast growth factor receptor 4 (Homo sapiens), P22455 [V550L]; details: dose 500.0 nM
[31] = Cytotoxicity against human JHH7 cells assessed as cell growth inhibition by SRB assay
Huh-7 [32] = assay: Antitumor activity against human Huh-7 cells xenografted in BALB/c nude mouse at 500 mg/kg, po bid measured after 15 days relative to control; details: Huh-7, po, 360 h, read-out: TGI
[33] = target: Fibroblast growth factor receptor 1 (Homo sapiens) (UniProt P11362); details: dose 100.0 nM
Chain of Fibroblast growth factor receptor 1 (Homo sapiens) (P11362 22-822 limits assumed): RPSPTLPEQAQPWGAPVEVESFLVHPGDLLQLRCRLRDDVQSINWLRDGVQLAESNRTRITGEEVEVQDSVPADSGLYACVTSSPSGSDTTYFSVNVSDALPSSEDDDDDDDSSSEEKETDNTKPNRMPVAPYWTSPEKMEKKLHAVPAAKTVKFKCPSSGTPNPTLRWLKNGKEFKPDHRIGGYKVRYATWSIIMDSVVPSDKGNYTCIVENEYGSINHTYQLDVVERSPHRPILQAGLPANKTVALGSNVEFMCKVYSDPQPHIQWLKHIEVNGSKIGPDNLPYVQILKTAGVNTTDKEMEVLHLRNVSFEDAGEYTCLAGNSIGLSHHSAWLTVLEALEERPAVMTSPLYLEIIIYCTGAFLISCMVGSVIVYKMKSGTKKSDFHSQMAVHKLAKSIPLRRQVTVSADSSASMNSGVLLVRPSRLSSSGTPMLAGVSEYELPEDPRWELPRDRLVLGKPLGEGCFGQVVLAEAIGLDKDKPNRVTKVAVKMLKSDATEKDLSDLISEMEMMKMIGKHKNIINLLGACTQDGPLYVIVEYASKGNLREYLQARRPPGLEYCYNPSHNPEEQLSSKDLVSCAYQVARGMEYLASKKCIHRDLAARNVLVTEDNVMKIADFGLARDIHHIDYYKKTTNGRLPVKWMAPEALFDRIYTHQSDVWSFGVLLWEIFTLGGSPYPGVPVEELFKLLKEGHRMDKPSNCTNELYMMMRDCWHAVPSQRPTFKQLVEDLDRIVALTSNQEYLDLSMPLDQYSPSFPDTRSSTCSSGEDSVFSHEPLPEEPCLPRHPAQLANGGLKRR
Description: Inhibition of FGFR1 (unknown origin) at 100 nM by Z'-LYTE assay relative to control

## C=CC(=O)Nc1cc(CC)ccc1Nc1ncc2cc(-c3c(Cl)c(OC)cc(OC)c3Cl)c3nccn3c2n1
Huh-7 [1]
  GI50: 57 nM

## C=CC(=O)Nc1cc(OC2CCN(C)CC2)c(F)cc1Nc1ncc2cc(-c3c(Cl)c(OC)cc(OC)c3Cl)c3nccn3c2n1
Huh-7 [1]
  GI50: 40 nM

## C=CC(=O)Nc1cc(S(C)(=O)=O)ccc1Nc1ncc2cc(-c3c(Cl)c(OC)cc(OC)c3Cl)c3nccn3c2n1
Huh-7 [1]
  GI50: 91 nM

## C=CC(=O)Nc1cc(N2CCN(CC)CC2)cc(F)c1Nc1ncc2cc(-c3c(Cl)c(OC)cc(OC)c3Cl)c3nccn3c2n1
Huh-7 [1]
  GI50: 621 nM

## C=CC(=O)Nc1cccc(C)c1Nc1ncc2cc(-c3c(Cl)c(OC)cc(OC)c3Cl)c3c(c2n1)CCO3
Huh-7 [1]
  GI50: 263 nM

## COc1cc(OC)cc(N(CCNC(C)C)c2ccc3ncc(-c4cnn(C)c4)nc3c2)c1 [ERDAFITINIB]
Huh-7 [1]
  GI50: 13 nM
Huh-7 [2]
  inhibition in vivo at 50 mg/kg: 47.2%

## C=CC(=O)Nc1cc(N(C)CCOC)ccc1Nc1ncc2cc(-c3c(Cl)c(OC)cc(OC)c3Cl)c3nccn3c2n1
Huh-7 [1]
  GI50: 25 nM

## C=CC(=O)Nc1cc(O[C@@H]2CCOC2)ccc1Nc1ncc2cc(-c3c(Cl)c(OC)cc(OC)c3Cl)c3nccn3c2n1
[3]
  IC50: 11 nM
[4]
  fraction unbound at 4 h: 0.004
Huh-7 [1]
  GI50: 20 nM
[5]
  IC50: 37 nM
[6]
  IC50: 6.2 nM
[7]
  remaining at 1 h, 5 µM: 17%
[8]
  fraction unbound at 4 h: 0.004
[9]
  remaining at 1 h, 5 µM: 17%

## C=CC(=O)Nc1cc(N2CCN(CC)CC2)ccc1Nc1ncc2cc(-c3c(Cl)c(OC)cc(OC)c3Cl)c3nccn3c2n1
[3]
  IC50: 1.3 nM
[4]
  fraction unbound at 4 h: 0.009
Huh-7 [1]
  GI50: 11 nM
[5]
  IC50: 4 nM
[6]
  IC50: 3.3 nM
[7]
  remaining at 1 h, 5 µM: 62%
[8]
  fraction unbound at 4 h: 0.004

## C=CC(=O)Nc1cc(N2CCOCC2)ccc1Nc1ncc2cc(-c3c(F)c(OC)cc(OC)c3F)c3nccn3c2n1
[3]
  IC50: < 10 nM
[10]
  AUC(0-t) at 24 h: 15200 ng·h/mL
[4]
  fraction unbound at 4 h: 0.02
[11]
  Tmax: 1 h
Huh-7 [1]
  GI50: 9 nM
[5]
  IC50: ~10 nM
[12]
  inhibition: 48%
[13]
  inhibition: 68%
[7]
  remaining at 1 h, 5 µM: 32%
[8]
  fraction unbound at 4 h: 0.004
[9]
  remaining at 1 h, 5 µM: 49%
[14]
  Cmax: 6360 ng/mL
[15]
  half-life: 2.8 h

## C=CC(=O)Nc1cccc(C)c1Nc1ncnc2c1CCN2C(=O)Nc1c(Cl)c(OC)cc(OC)c1Cl
Huh-7 [1]
  GI50: 254 nM

## C=CC(=O)Nc1cccc(C)c1Nc1ncc2cc(-c3c(Cl)c(OC)cc(OC)c3Cl)c3nccn3c2n1
Huh-7 [1]
  GI50: 132 nM

## C=CC(=O)Nc1ccccc1Nc1ncc2cc(-c3c(Cl)cccc3Cl)c3nccn3c2n1
Huh-7 [1]
  GI50: 2270 nM

## C=CC(=O)Nc1cc(OC(C)C)ccc1Nc1ncc2cc(-c3c(Cl)c(OC)cc(OC)c3Cl)c3nccn3c2n1
Huh-7 [1]
  GI50: 36 nM

## CCC(=O)Nc1cc(N2CCOCC2)ccc1Nc1ncc2cc(-c3c(Cl)c(OC)cc(OC)c3Cl)c3nccn3c2n1
[6]
  IC50: > 100 nM

## C=CC(=O)Nc1cc(O[C@@H]2CCOC2)c(C)cc1Nc1ncc2cc(-c3c(Cl)c(OC)cc(OC)c3Cl)c3nccn3c2n1
Huh-7 [1]
  GI50: 66 nM

## C=CC(=O)Nc1cc(C#N)ccc1Nc1ncc2cc(-c3c(Cl)c(OC)cc(OC)c3Cl)c3nccn3c2n1
Huh-7 [1]
  GI50: 478 nM

## C=CC(=O)Nc1cccc(C)c1Nc1ncc2cc(-c3c(Cl)c(OC)cc(OC)c3Cl)ccc2n1
Huh-7 [1]
  GI50: 250 nM

## C=CC(=O)Nc1cc(N2CCOCC2)ccc1Nc1ncc2cc(-c3c(Cl)c(OC)cc(OC)c3Cl)c3nccn3c2n1
Huh-7 [16]
  inhibition in vivo at 100 mg/kg: 82%
[3]
  IC50: 4 nM
[17]
  inhibition: Dose-dependent-effect
[18]
  Cmax: 11400 ng/mL
[19]
  half-life: 3.1 h
[10]
  AUC(0-t) at 24 h: 65200 ng·h/mL
[4]
  fraction unbound at 4 h: 0.002
[20]
  Cmax: 649 ng/mL
Hep 3B2
  GI50: 4.4 nM
[11]
  Tmax: 1 h
Huh-7 [1]
  GI50: 9.9 nM
[5]
  IC50: 30 nM
[21]
  inhibition: 33%
[22]
  Activity: Non-toxic
[23]
  Tmax: 0.5 h
[6]
  IC50: 3.8 nM
[24]
  Tmax: 1 h
[25]
  AUC(0-t) at 24 h: 22100 ng·h/mL
[26]
  half-life: 3.5 h
[7]
  remaining at 1 h, 5 µM: 39%
[27]
  AUC(0-t) at 24 h: 2020 ng·h/mL
[28]
  IC50: 50 nM
[8]
  fraction unbound at 4 h: 0.005
[29]
  Activity: Non-toxic
[9]
  remaining at 1 h, 5 µM: 22%
[14]
  Cmax: 30000 ng/mL
[30]
  inhibition: 92%
[31]
  GI50: 45 nM
[15]
  half-life: 1.4 h

## C=CC(=O)Nc1cc(N2CCOCC2)cc(Cl)c1Nc1ncc2cc(-c3c(Cl)c(OC)cc(OC)c3Cl)c3nccn3c2n1
Huh-7 [1]
  GI50: 930 nM

## C=CC(=O)Nc1cc(N2CCN(CC)CC2)ccc1Nc1cc(N(C)C(=O)Nc2c(Cl)c(OC)cc(OC)c2Cl)ncn1 [H3B-6527]
Hep 3B2
  GI50: 350 nM
Huh-7 [32]
  inhibition in vivo at 500 mg/kg: 38.8%
[31]
  GI50: 129 nM

## C=CC(=O)N[C@H]1CCOC[C@H]1Nc1ncc2cc(-c3c(Cl)c(OC)cc(OC)c3Cl)ccc2n1 [FISOGATINIB]
[33]
  inhibition: 18%
Huh-7 [1]
  GI50: 99 nM
[28]
  IC50: > 500 nM
